Results on 22 compounds are retold here after ChEMBL document CHEMBL3259744, “Synthesis and biological evaluation of cinnamido linked benzophenone hybrids as tubulin polymerization inhibitors and apoptosis inducing agents” (Bioorg Med Chem Lett, 2014).

Molecules are shown by their SMILES. pIC50: −log10 of the molar value. Active and inactive are the calls of the source. No cut-off for these calls is given here.

The test system of assay [1] is HeLa. In words: Cytotoxicity against human HeLa cells after 72 hrs by MTT assay. The format is functional, cell-based.
Assay [2] can be described thus: Cytotoxicity against human ME180 cells after 72 hrs by MTT assay. The assay is classed as functional, cell-based. The settings on record: ME-180, 72 h. Background: Formazan colour is commonly taken as a measure of viable cells.
The test system of assay [3] is DU-145. Kind of assay: Cytotoxicity against human DU145 cells after 72 hrs by MTT assay. The settings on record: DU-145, 72 h. The format is functional, cell-based.
Assay [4] has as its system PC-3. In words: Cytotoxicity against human PC3 cells after 72 hrs by MTT assay. The assay is classed as functional, cell-based. Conditions: PC-3, 72 h.
Assay [5] deals with COLO 205. Kind of assay: Cytotoxicity against human COLO205 cells after 72 hrs by MTT assay. The assay is classed as functional, cell-based. The settings on record: COLO 205, 72 h.
Assay [6] has as its system HT-29. In words: Cytotoxicity against human HT-29 cells after 72 hrs by MTT assay. The format is functional, cell-based. Conditions: HT-29, 72 h.
For assay [7], the system named is B16. In words: Cytotoxicity against mouse B16 cells after 72 hrs by MTT assay. The assay is classed as functional, cell-based. Conditions: B16, 72 h.
In assay [8] the test system is HeLa. In words: Induction of apoptosis in human HeLa cells assessed as presence of apoptotic bodies at 1 uM after 48 hrs by Hoechst 33342 staining-based fluorescence microscopic analysis. The format is functional, cell-based.
For assay [9], the system named is HeLa. In words: Induction of apoptosis in human HeLa cells assessed as nuclear fragmentation at 1 uM after 48 hrs by Hoechst 33342 staining-based fluorescence microscopic analysis. The format is functional, cell-based.
Assay [10] has as its system HeLa. Kind of assay: Cell cycle arrest in human HeLa cells assessed as accumulation at sub-G1 phase at 0.5 uM after 24 hrs by propidium iodide staining-based FACS analysis (reference value: 3.07%). The format is functional. A general note: In flow cytometry, cells or beads pass a laser one at a time.
For assay [11], the system named is HeLa. Kind of assay: Cell cycle arrest in human HeLa cells assessed as accumulation at G1 phase at 0.5 uM after 24 hrs by propidium iodide staining-based FACS analysis (reference value: 71.21%). The format is functional.
For assay [12], the system named is HeLa. In words: Cell cycle arrest in human HeLa cells assessed as accumulation at S phase at 0.5 uM after 24 hrs by propidium iodide staining-based FACS analysis (reference value: 4.62%). The format is functional.
For assay [13], the system named is HeLa. Kind of assay: Cell cycle arrest in human HeLa cells assessed as accumulation at G2/M phase at 0.5 uM after 24 hrs by propidium iodide staining-based FACS analysis (reference value: 21.10%). The assay is classed as functional.
Assay [14] has as its system HeLa. Kind of assay: Induction of apoptosis in human HeLa cells assessed as caspase-3 activation at 2 uM after 48 hrs by Ac-DEVD fluorescence assay relative to control. The assay is classed as functional.
The target of assay [15] is T1, Tubulin (Homo sapiens) (UniProt P68371+Q9H4B7+P0DPH7+P68366+Q13509+Q71U36+P04350+Q3ZCM7+P07437+P68363+Q9BQE3+Q6PEY2+Q13885+Q9BVA1+Q9BUF5). In words: Inhibition of tubulin polymerization in human HeLa cells assessed as disruption of microtubule organization at 1 uM after 48 hrs by immunohistochemical analysis. The format is cell-based.
Assay [16] addresses T1, Tubulin (Homo sapiens). Kind of assay: Inhibition of tubulin (unknown origin) polymerization at 5 uM measured for 1 hr by fluorescence assay in presence of GTP relative to control. The assay is classed as protein-complex assay.
Assay [17] addresses Tubulin. Kind of assay: Inhibition of tubulin (unknown origin) polymerization measured for 1 hr by fluorescence assay in presence of GTP. The assay is classed as protein-complex assay, Homo sapiens.
Assay [18] relates to HeLa. In words: Induction of apoptosis in human HeLa cells assessed as […] condensation at 1 uM after 48 hrs by Hoechst 33342 staining-based fluorescence microscopic analysis. The assay is classed as functional, cell-based.

By pIC50 is commonly meant the IC50 on a negative log10 scale, so that one unit is a factor of ten. As a reminder, the inhibition is the percentage by which the read-out fell short of the control.

In the case of `COc1ccc(/C=C/C(=O)Nc2cc(C(=O)c3cc(OC)c(OC)c(OC)c3)cc(OC)c2OC)cc1OC`, the negative logarithm of the IC50 (pIC50) in [1] was 5.57; in assay [2], 5.17; in assay [3], 5.11; in [4], 5.27; in assay [5], 5.24; in assay [6], 5.64. For the same compound, the pIC50 in [7] is 5.89.

Take `C#CCOc1cccc(/C=C/C(=O)Nc2cc(C(=O)c3cc(OC)c(OC)c(OC)c3)cc(OC)c2OC)c1`: the pIC50 in assay [1] was 5.14; in assay [2], 5.08; in assay [3], 4.87; in assay [4] it was 5.00; in assay [5], 4.95; in assay [6] it was 5.09. Moreover, the pIC50 in assay [7] is 5.29.

For `COc1cc(C(=O)c2cc(OC)c(OC)c(OC)c2)cc(NC(=O)/C=C/c2ccc(F)cc2)c1OC`, the pIC50 in [1] was 6.05; in assay [2] it was 6.00; in assay [3], 5.17; in [4], 5.39; in assay [5], 5.51; in [6], 5.74. The same compound showed a pIC50 in assay [7] of 6.05.

Turning to `COc1ccc(C(=O)c2cc(OC)c(OC)c(OC)c2)cc1NC(=O)/C=C/c1ccc(OC)c(OC)c1`, the pIC50 is 5.11 in assay [1]; 5.05 in assay [2]; 4.99 in assay [3]; 5.12 in assay [4]; 5.09 in [5]; 5.60 in [6]. Moreover, in [7], the negative logarithm of the IC50 (pIC50) was 5.20.

With `COc1ccc(C(=O)c2cc(OC)c(OC)c(OC)c2)cc1NC(=O)/C=C/c1cc(OC)c(OC)c(OC)c1`, the pIC50 in assay [1] is 5.82; in assay [2], 5.68; in assay [3] it was 5.20; in assay [4] it was 5.41; in assay [5], 5.28; in assay [6] it was 5.51. In addition, the negative-log IC50 (pIC50) in [7] is 5.92.

For the compound `COc1cccc(/C=C/C(=O)Nc2cc(OC)c(OC)c(OC)c2)c1`, the pIC50 is 4.91 in assay [1]; 4.76 in assay [2]; 5.49 in assay [3]; 5.68 in assay [4]; 5.38 in assay [5]; 5.62 in assay [6]. The pIC50 in [7] is 5.07.

Take `COc1cc(C(=O)c2cc(OC)c(OC)c(OC)c2)cc(NC(=O)/C=C/c2ccc(C(F)(F)F)cc2)c1OC`: the pIC50 was 5.52 in [1]; 5.44 in [2]; 5.29 in assay [3]; 5.38 in assay [4]; 5.60 in assay [5]; 5.72 in [6]. In [7], the pIC50 was 5.48.

Regarding `COc1cccc(/C=C/C(=O)Nc2cc(C(=O)c3cc(OC)c(OC)c(OC)c3)cc(OC)c2OC)c1`, the pIC50 in assay [1] was 5.16; in [2], 5.07; in assay [3], 4.90; in assay [4] it was 4.88; in assay [5], 4.97; in assay [6], 5.06. This compound showed a negative logarithm of the IC50 (pIC50) in [7] of 5.17.

Take `COc1cc(C(=O)c2cc(OC)c(OC)c(OC)c2)cc(NC(=O)/C=C/c2cc(OC)c(OC)c(OC)c2)c1OC`: the negative logarithm of the IC50 (pIC50) in assay [1] was 5.60; in [2], 5.41; in assay [3], 5.18; in assay [4] it was 5.32; in assay [5], 5.28; in assay [6] it was 5.51. In assay [7], the pIC50 is 5.60.

For `COc1cc(C(=O)c2cc(OC)c(OC)c(OC)c2)cc(N)c1OC`, the pIC50 in [1] is 4.87; in assay [2] it was 4.91; in assay [3], 5.00; in assay [4], 5.13; in assay [5] it was 5.36; in [6], 5.42. The negative logarithm of the IC50 (pIC50) in assay [7] is 4.90.

For `COc1ccc(C(=O)c2cc(OC)c(OC)c(OC)c2)cc1N`, the result in [8], in assay [9] and in assay [18] was Active. Besides, the pIC50 in assay [1] was 7.22; in [2], 7.10; in [3], 5.68; in assay [4], 5.96; in [5], 6.70; in assay [6], 7.30. The pIC50 in assay [7] was 7.52; in [17] it was 6.22. The Activity in assay [10] was found to be 4.56%; in assay [11], 53%; in assay [12], 5.07%; in [13], 37.36%. The “fold change (FC)” value in [14] came to 5. Further, the inhibition entry in assay [15] is “Active”. For the same compound, the inhibition in [16] worked out at 58.3%.

As for `COc1ccc(C(=O)c2cc(OC)c(OC)c(OC)c2)cc1NC(=O)/C=C/c1ccc(N)cc1`, the pIC50 was 4.83 in [1]; 4.80 in [2]; 4.87 in assay [3]; 4.80 in [4]; 4.99 in assay [5]; 5.25 in [6]. The pIC50 in assay [7] was 5.10.

With `COc1ccc(C(=O)c2cc(OC)c(OC)c(OC)c2)cc1NC(=O)/C=C/c1cccc(OC(F)(F)F)c1`, the pIC50 in assay [1] is 5.10; in assay [2], 5.04; in assay [3], 4.99; in assay [4], 5.11; in assay [5], 5.10; in assay [6], 5.28. In [7], this compound gave a pIC50 of 5.20.

`COc1ccc(/C=C/C(=O)Nc2cc(C(=O)c3cc(OC)c(OC)c(OC)c3)cc(OC)c2OC)cc1`: the pIC50 was 4.95 in [1]; 4.90 in assay [2]; 4.98 in assay [3]; 5.20 in [4]; 5.32 in assay [5]; 5.42 in assay [6]. Moreover, the pIC50 in assay [7] was 5.03.

On to `COc1ccc(/C=C/C(=O)Nc2cc(C(=O)c3cc(OC)c(OC)c(OC)c3)cc(OC)c2OC)cc1N`, for which the pIC50 in assay [1] is 4.80; in [2] it was 4.86; in [3], 4.90; in [4], 4.95; in assay [5], 5.00; in assay [6], 5.11. This compound also gave a pIC50 in [7] of 4.90.

Regarding `COc1ccc(C(=O)c2cc(OC)c(OC)c(OC)c2)cc1NC(=O)/C=C/c1ccc(F)c(F)c1`, the pIC50 in [1] was 5.09; in assay [2], 5.05; in assay [3], 4.99; in assay [4], 5.08; in assay [5], 5.22; in assay [6], 5.38. In addition, the pIC50 in assay [7] was 5.19.

As to `COc1cc(/C=C/C(=O)Nc2cc(C(=O)c3cc(OC)c(OC)c(OC)c3)ccc2OC)ccc1F`, the pIC50 was 4.87 in assay [1]; 4.81 in assay [2]; 4.92 in assay [3]; 4.85 in assay [4]; 4.93 in [5]; 5.11 in assay [6]. For the same compound, the pIC50 in assay [7] was 4.79.

On to `COc1ccc(/C=C/C(=O)Nc2cc(C(=O)c3cc(OC)c(OC)c(OC)c3)ccc2OC)cc1`, for which the pIC50 was 4.97 in assay [1]; 4.93 in assay [2]; 4.89 in assay [3]; 4.95 in [4]; 4.96 in [5]; 5.30 in assay [6]. Besides, in assay [7], the pIC50 is 5.06.

For the compound `COc1cc(C(=O)c2cc(OC)c(OC)c(OC)c2)cc(NC(=O)/C=C/c2cc(F)c(F)c(F)c2)c1OC`, the pIC50 is 5.30 in assay [1]; 5.15 in [2]; 5.10 in assay [3]; 5.13 in [4]; 5.37 in [5]; 5.48 in assay [6]. Also, the pIC50 in assay [7] was 5.28.

As to `COc1ccc(C(=O)c2cc(OC)c(OC)c(OC)c2)cc1NC(=O)/C=C/c1ccc([N+](=O)[O-])cc1`, the pIC50 in assay [1] is 5.07; in assay [2], 5.03; in assay [3], 4.81; in assay [4], 4.98; in assay [5], 4.94; in assay [6], 5.29. This compound had a pIC50 in assay [7] of 5.19.

Turning to `COc1cccc(/C=C/C(=O)Nc2cc(C(=O)c3cc(OC)c(OC)c(OC)c3)ccc2OC)c1`, the pIC50 in assay [1] is 5.51; in assay [2], 5.37; in assay [3], 5.21; in assay [4], 5.33; in assay [5], 5.29; in assay [6] it was 5.72. The pIC50 in [7] is 5.51.

For the compound `C#CCOc1cccc(/C=C/C(=O)Nc2cc(C(=O)c3cc(OC)c(OC)c(OC)c3)ccc2OC)c1`, the pIC50 is 4.85 in [1]; 4.82 in [2]; 4.80 in assay [3]; 4.88 in [4]; 4.87 in [5]; 5.13 in assay [6]. Also, the pIC50 in assay [7] is 4.91.
